A short description of data set [1]: Particle size of micronised drug substance after jet milling. Type of data set: physicochemical. To be noted: after micronisation in jet mill. The protocol:
37 g of magnesium […] are mixed with 1 kg of crystalline glycopyrronium bromide in a Turbula® blender for 5 hours. The resulting mixture is micronised using a Hosokawa Alpine® 100 AFG fluid bed opposed jet mill with the following parameters: classifier speed, 13000 rpm; milling gas pressure, 3.5 bar. The mill is equipped with 3 nozzles of 1.9 mm diameter.
The resulting mixture has a median particle size of about 3 micron (x90=7 micron, x50=3 micron, x10=1 micron). The magnesium stearate is well distributed over the drug substance surface.
Drug substance 1:50 g of magnesium stearate are mixed with 1 kg of crystalline glycopyrronium bromide in a Turbula® blender for 5 hours. The resulting mixture is micronised using a Hosokawa Alpine® 100 AFG fluid bed opposed jet mill (equipped with 3 nozzles of 1.9 mm diameter) with the following parameters: classifier speed, 13000 rpm; milling gas pressure, 3.5 bar, to give particles that have an average particle size of less than 5 microns.
Drug substance 2: 1 kg of crystalline glycopyrroninum bromide is micronised using a Hosokawa Alpine® 100 AFG fluid bed opposed jet mill (equipped with 3 nozzles of 1.9 mm diameter) with the following parameters: classifier speed, 13000 rpm; milling gas pressure, 3.5 bar, to give particles that have an average particle size of less than 5 microns.

For data set [2] the following is noted: single administration of a metered dose, aerosol formulation, asthma; cited from earlier work.

On to `C[N+]1(C)CCC(OC(=O)C(O)(c2ccccc2)C2CCCC2)C1` (centres unmarked) [Drug substance 2, glycopyrroninum bromide], for which the average particle size result in data set [1] is reported as “less than 5 microns”.

As to `C[N+]1(C)CCC(OC(=O)C(O)(c2ccccc2)C2CCCC2)C1.[Br-]` (centres unmarked) [glycopyrrolate, 3-[(cyclopentyl-hydroxyphenylacetyl)oxy]-1,1-dimethyl-pyrrolidinium bromide], the duration of bronchodilation entry in data set [2] is recorded as “up to 12 hours”.

The values are drawn from patent publication US10314784B2, “Compositions of glycopyrronium salt for inhalation” (Novartis AG, priority 2006, dated 2019).
